The source of these data is article PMC1448180, “Small-molecule and mutational analysis of allosteric Eg5 inhibition by monastrol” (BMC Chemical Biology, 2006).

Substitutions are numbered along the chain they refer to. Like-named read-outs stand apart in the source and are kept apart here.

One assay deals with T1, hEg5-367H (Homo sapiens, UniProt P52732).
T1 construct: motor domain (amino acid residues 1–367) of human Eg5; His6 (C); made in house
T1 sequence (P52732 1-367): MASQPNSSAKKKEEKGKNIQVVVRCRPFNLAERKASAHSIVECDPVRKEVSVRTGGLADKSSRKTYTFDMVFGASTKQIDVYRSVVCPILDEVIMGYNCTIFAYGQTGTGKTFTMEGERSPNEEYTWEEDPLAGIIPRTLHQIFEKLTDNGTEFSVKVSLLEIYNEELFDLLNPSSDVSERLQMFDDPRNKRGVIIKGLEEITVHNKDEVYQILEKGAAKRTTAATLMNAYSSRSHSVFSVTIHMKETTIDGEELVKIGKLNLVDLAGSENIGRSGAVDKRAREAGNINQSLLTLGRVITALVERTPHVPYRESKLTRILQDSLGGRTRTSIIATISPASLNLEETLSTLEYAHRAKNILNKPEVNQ
The assay is described as follows: ATP hydrolysis by recombinant human Eg5 motor domain (NADH-enzyme coupled assay). As to conditions: for Activity as Eg5 inhibitor, in words: authors' assays. Format: biochemical. As to the method: (§1) Figure 2 Structure-activity relationship of monastrol derivatives. (A) Scheme depicting the Biginelli condensation, a one-pot reaction for preparing monastrol derivatives. […] Each data point is the average of three independent experiments. […] Each cell-based assay was performed in duplicate.
We used a modified PCR mutagenesis protocol to introduce mutations into hEg5-367H, a plasmid encoding the C-terminally His6-tagged motor domain (amino acid residues 1–367) of human Eg5. The wild-type and mutant proteins were expressed and purified using Ni-NTA affinity chromatography and concentrated to between 3 and 10 mg/ml protein as described.
(§2) ATP hydrolysis by recombinantly expressed kinesin motor domains was measured using an NADH-enzyme coupled assay. ATP hydrolysis was measured in KC25 buffer supplemented with 5 μM taxol, 1 mM ATP-KOH (pH 7.0), the appropriate concentration of motor domain, and the appropriate concentrations of taxol-polymerized microtubules.

A further assay has as its target T2, Klp61F-364H (Drosophila melanogaster, UniProt P46863).
T2 construct: His6 (C); made in house; host or cells: vector pRSETa
T2 sequence (P46863 1-364): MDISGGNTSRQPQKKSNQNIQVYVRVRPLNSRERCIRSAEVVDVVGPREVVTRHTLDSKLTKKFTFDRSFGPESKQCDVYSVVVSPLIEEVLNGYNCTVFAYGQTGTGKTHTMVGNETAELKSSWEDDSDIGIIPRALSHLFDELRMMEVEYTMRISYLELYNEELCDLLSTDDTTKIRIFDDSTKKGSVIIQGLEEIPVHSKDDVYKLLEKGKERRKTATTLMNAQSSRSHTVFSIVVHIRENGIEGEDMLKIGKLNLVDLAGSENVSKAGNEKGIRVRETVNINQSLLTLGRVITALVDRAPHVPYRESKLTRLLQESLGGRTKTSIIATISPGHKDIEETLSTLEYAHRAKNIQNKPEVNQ
Nature of the assay: ATP hydrolysis by Klp-61F motor domain (NADH-enzyme coupled assay). It is filed as biochemical, D. melanogaster. As to the method:
Each data point is the average of three independent experiments.
as §2

For a further assay, the system named is BS-C-1 cells. Nature of the assay: Monoaster formation in tissue culture cells (manual count of mitotic cells). It is filed as cell-based, green monkey. As to conditions: Chlorocebus sabaeus, read-out: Cells: monoaster formation score (drug concentration with roughly equal monastral and bipolar spindles). How it is done:
as §1
Conditions for growing the following cell lines are as described: D. rerio AB9 (37), D. melanogaster KC167 [38], and BS-C-1 green monkey kidney cells. For immunofluorescence microscopy, cells were grown on 12 mm circular coverslips to 30 % confluence, treated medium supplemented with drug and 0.2% DMSO, or a DMSO alone, for 6 hours, fixed with formaldehyde, and stained for DNA and microtubules, as described. D. melanogaster KC167 cells were cultured in Schneider's Drosophila Medium (GIBCO) whereas D. rerio AB9 cells and BS-C-1 green monkey kidney cells were cultured at 37°C in Dulbecco's Minimal medium in the presence of 10 % heat inactivated fetal calf serum.

A further assay has as its target T3, hEg5-367H (L214T) (Homo sapiens, UniProt P52732, L214T).
T3 construct: motor domain (amino acid residues 1–367) of human Eg5; His6 (C); made in house
T3 sequence (P52732 1-367 L214T): T1 sequence (P52732 1-367) with L214T
Nature of the assay: ATP hydrolysis by Eg5 motor domain mutant L214T. It is filed as biochemical. As to conditions: data not shown.
Text: Figure 4 Mutagenesis of the monastrol binding site in human Eg5. (A) Design of mutations in the human Eg5 motor domain. Amino acid side chains that are not conserved between Eg5 and conventional kinesin were targeted, either introducing chimeric or rationally designed mutations (asterix for targeted point mutants) to test the contribution of residues to the drug-sensitivity of Eg5. (B) Steady-state enzymatic parameters for engineered human Eg5 motor domain mutants. Steady-state ATP hydrolysis by Eg5 was measured using an NADH-enzyme coupled assay varying the concentration of ATP, microtubules, or monastrol to obtain the microtubule concentration for half-maximal stimulation (K0.5MT), the maximal rate of microtubule-stimulated ATP hydrolysis (kcat), and the concentration of monastrol that inhibits basal ATP hydrolysis by 50 % (IC50), as described.
We used a modified PCR mutagenesis protocol to introduce mutations into hEg5-367H, a plasmid encoding the C-terminally His6-tagged motor domain (amino acid residues 1–367) of human Eg5. […]
as §2

The next assay deals with Eg5. As to conditions: cited from earlier work.
The mark [1] stands for this setting: 500 nM hEg5-367H, KC25 buffer, 1 mM ATP-KOH (pH 7.0), 1 μM taxol-stabilized microtubules.
The mark [2] stands for this setting: BSC-1, BS-C-1 cells, 6 hours treatment, duplicate.
[3] abbreviates: 500 nM hEg5-367H, KC25 buffer, 1 mM ATP-KOH (pH 7.0), 1 μM taxol-stabilized microtubules, read-out: IC50 (μM), inhibition of ATP hydrolysis by Eg5 motor domain.

In the case of `CCOC(=O)C1=C(C)NC(=S)N[C@H]1c1cccc(O)c1` [(S)-monastrol, reference compound], the half-inhibitory concentration (IC50) (commonly the midpoint of a concentration-inhibition curve) at hEg5-367H worked out at 6.1 ± 0.7 µM; at Klp61F-364H, 230 ± 4 µM.

For the compound `CCOC(=O)C1=C(C)N(C)C(=S)NC1c1cccc(O)c1` (centres unmarked) [Derivative 1, ethyl 6-methyl-4-(3-hydroxyphenyl)-2-thioxo-1-methyl-1,2,3,4-tetrahydropyrimidine-5-carboxylate], the IC50 at hEg5-367H is 3.3 µM. Also, the EC50 in the assay on BS-C-1 cells (BSC-1, 6 h) was under 50 µM.

`CCOC(=O)C1=C(C)NC(=O)NC1c1cccc(O)c1` (centres unmarked) [Derivative 2, ethyl 6-methyl-4-(3-hydroxyphenyl)-2-oxo-1,2,3,4-tetrahydropyrimidine-5-carboxylate]: on hEg5-367H (setting [1]), the “IC50 (μM), inhibition of ATP hydrolysis by Eg5 motor domain” value (“IC50 (μM), inhibition of ATP hydrolysis” below) is listed as “Not Inhib”. The “Activity as Eg5 inhibitor, in words” value on hEg5-367H was “completely inactive”. Moreover, the EC50 with BS-C-1 cells (setting [2]) is over 200 µM. For the same compound, the “Drug sensitivity of L214T mutant, in words” value on hEg5-367H (L214T) is “resistant”.

`CCOC(=O)C1=C(C)NC(=S)NC1c1ccccc1` (centres unmarked) [Derivative 4a, ethyl 6-methyl-4-phenyl-2-thioxo-1,2,3,4-tetrahydropyrimidine-5-carboxylate]: the IC50 on hEg5-367H (setting [3]) is over 200 µM. The EC50 with BS-C-1 cells (setting [2]) was over 200 µM.

In the case of `CCOC(=O)C1=C(C)NC(=S)NC1c1ccc(O)cc1` (centres unmarked) [Derivative 4b], at hEg5-367H (setting [1]), the “IC50 (μM), inhibition of ATP hydrolysis” value is on record as “Not Inhib”. In addition, the EC50 with BS-C-1 cells (BSC-1, 6 h) was over 200 µM.

Take `CCOC(=O)C1=C(C)NC(=S)NC1c1cccc(F)c1` (centres unmarked) [Derivative 4c, ethyl 6-methyl-4-(3-fluorophenyl)-2-thioxo-1,2,3,4-tetrahydropyrimidine-5-carboxylate]: the “IC50 (μM), inhibition of ATP hydrolysis” value at hEg5-367H (setting [1]) is “Not Inhib”. For the same compound, the EC50 in the assay with BS-C-1 cells (BSC-1, 6 h) is over 200 µM.

As to `CCOC(=O)C1=C(C)NC(=S)NC1c1cccc(OC)c1` (centres unmarked) [Derivative 4d, ethyl 6-methyl-4-(3-methoxyphenyl)-2-thioxo-1,2,3,4-tetrahydropyrimidine-5-carboxylate], the “IC50 (μM), inhibition of ATP hydrolysis” value at hEg5-367H (setting [1]) was “Not Inhib”. The EC50 in the assay on BS-C-1 cells (BSC-1, 6 h) is over 200 µM.

`CCOC(=O)C1=C(C)NC(=S)NC1c1cccc(Br)c1` (centres unmarked) [Derivative 4e, ethyl 6-methyl-4-(3-bromophenyl)-2-thioxo-1,2,3,4-tetrahydropyrimidine-5-carboxylate]: the “Activity as Eg5 inhibitor, in words” value at hEg5-367H is “completely inactive”.

For `CC(=O)C1=C(C)NC(=S)NC1c1cccc(O)c1` (centres unmarked) [Derivative 5a, methyl 6-methyl-4-(3-hydroxyphenyl)-2-thioxo-1,2,3,4-tetrahydropyrimidine-5-ketone], the IC50 at hEg5-367H was found to be 25 µM. In addition, in the assay with BS-C-1 cells (BSC-1, 6 h), the EC50 was in the range of 50 to 200 µM.

As to `CC1=C(C(=O)OCC(C)C)C(c2cccc(O)c2)NC(=S)N1` (centres unmarked) [Derivative 5b, isobutyl 6-methyl-4-(3-hydroxyphenyl)-2-thioxo-1,2,3,4-tetrahydropyrimidine-5-carboxylate], on hEg5-367H (setting [3]), the IC50 was found to be 3.8 µM. The EC50 with BS-C-1 cells (setting [2]) is under 50 µM.

Consider `CC1=C(C(=O)OCc2ccccc2)C(c2cccc(O)c2)NC(=S)N1` (centres unmarked) [Derivative 5c, benzyl 6-methyl-4-(3-hydroxyphenyl)-2-thioxo-1,2,3,4-tetrahydropyrimidine-5-carboxylate], for which the IC50 at hEg5-367H turned out to be 21 µM. Besides, the EC50 in the assay on BS-C-1 cells (BSC-1, 6 h) lay in the range of 50 to 200 µM.

Consider `CCOC(=O)C1=C(C(C)C)NC(=S)NC1c1cccc(O)c1` (centres unmarked) [Derivative 6, ethyl 6-isopropyl-4-(3-hydroxyphenyl)-2-thioxo-1,2,3,4-tetrahydropyrimidine-5-carboxylate], for which the “IC50 (μM), inhibition of ATP hydrolysis” value at hEg5-367H (setting [1]) is given as “Not Inhib”. Moreover, in the assay on BS-C-1 cells (BSC-1, 6 h), the EC50 is over 200 µM.

In the case of `N[C@@H](CSC(c1ccccc1)(c1ccccc1)c1ccccc1)C(=O)O` [S-trityl cysteine], the “Potency relative to monastrol” value in the assay with Eg5 is reported as “more potent than monastrol”.
